The text below walks through data of paper PMC4210175 (Journal of Chemical Information and Modeling, 2014).

The experiment has as its target T1, Mycobacterium thermoresistibile MycP1 (Mycolicibacterium thermoresistibile, UniProt G7CDQ2).
T1 sequence (G7CDQ2 19-443): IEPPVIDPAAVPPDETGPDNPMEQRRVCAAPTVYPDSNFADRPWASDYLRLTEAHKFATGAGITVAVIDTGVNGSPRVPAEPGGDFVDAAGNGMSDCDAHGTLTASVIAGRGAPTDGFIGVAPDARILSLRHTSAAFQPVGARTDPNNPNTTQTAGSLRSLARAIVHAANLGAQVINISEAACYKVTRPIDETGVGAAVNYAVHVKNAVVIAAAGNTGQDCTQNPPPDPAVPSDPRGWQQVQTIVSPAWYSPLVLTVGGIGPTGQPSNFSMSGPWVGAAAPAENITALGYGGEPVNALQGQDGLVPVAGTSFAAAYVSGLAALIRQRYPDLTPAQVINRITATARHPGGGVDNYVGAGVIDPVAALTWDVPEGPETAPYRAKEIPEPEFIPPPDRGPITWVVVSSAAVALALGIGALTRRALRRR
Briefly: In vitro quenched fluorescent peptide assay of MycP1 inhibitors. It is filed as biochemical. As to conditions: for inhibition at 150 µM: read-out: % inhibition at 150 μM.

For the compound `N=C(N)c1ccc(/C=C/c2ccc(C(=N)N)cc2O)cc1` [compound 11, Hydroxystilbamidine], the IC50 was determined as 85.6 µM and the inhibition at 150 µM came out at 79.1%. Turning to `N=C(N)c1ccc(/N=N/Nc2ccc(C(=N)N)cc2)cc1` [compound 12, Diminazene], the inhibition at 150 µM is 58%.

For `CC(=O)Nc1ccc(/C=N/NC(N)=S)cc1` [compound 13, Thiacetazone], the inhibition at 150 µM is 80.1%.
